Assay results published in PubChem BioAssay (NCI).
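Here, GI50 denotes the concentration required for 50% inhibition of growth. TGI marks complete inhibition of growth.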

Legend:
Assay in all cases: NCI-60 cell line screen, 384-well format
786-0 renal = tested on: 786-0 renal
A498 renal = tested on: A498 renal
A549 NSCLC = tested on: A549 NSCLC
ACHN renal = tested on: ACHN renal
BT-549 breast = tested on: BT-549 breast
CAKI-1 renal = tested on: CAKI-1 renal
CCRF-CEM leukemia = tested on: CCRF-CEM leukemia
COLO 205 colon = tested on: COLO 205 colon
DU-145 prostate = tested on: DU-145 prostate
EKVX NSCLC = tested on: EKVX NSCLC
HCC-2998 colon = tested on: HCC-2998 colon
HCT-116 colon = tested on: HCT-116 colon
HCT-15 colon = tested on: HCT-15 colon
HL-60(TB) leukemia = tested on: HL-60(TB) leukemia
HOP-62 NSCLC = tested on: HOP-62 NSCLC
HOP-92 NSCLC = tested on: HOP-92 NSCLC
HS 578T breast = tested on: HS 578T breast
HT29 colon = tested on: HT29 colon
IGROV1 ovarian = tested on: IGROV1 ovarian
K-562 leukemia = tested on: K-562 leukemia
KM12 colon = tested on: KM12 colon
LOX IMVI melanoma = tested on: LOX IMVI melanoma
M14 melanoma = tested on: M14 melanoma
MALME-3M melanoma = tested on: MALME-3M melanoma
MCF7 breast = tested on: MCF7 breast
MDA-MB-231 breast = tested on: MDA-MB-231 breast
MDA-MB-435 melanoma = tested on: MDA-MB-435 melanoma
MDA-MB-468 breast = tested on: MDA-MB-468 breast
MOLT-4 leukemia = tested on: MOLT-4 leukemia

## COc1cc(-c2ncn(/C=C\C(=O)OC(C)C)n2)cc(C(F)(F)F)c1
786-0 renal
  GI50: 37.3 nM
  TGI: 1200 nM
A498 renal
  GI50: 114 nM
  TGI: 1250 nM
A549 NSCLC
  GI50: 87.4 nM
  TGI: 1360 nM
ACHN renal
  GI50: 57.5 nM
  TGI: 1500 nM
BT-549 breast
  GI50: 19 nM
  TGI: 46.5 nM
CAKI-1 renal
  GI50: 34.7 nM
  TGI: 3950 nM
CCRF-CEM leukemia
  GI50: 40.9 nM
  TGI: 182 nM
COLO 205 colon
  GI50: 48.2 nM
  TGI: 1260 nM
DU-145 prostate
  GI50: 162 nM
  TGI: 866 nM
EKVX NSCLC
  GI50: 429 nM
  TGI: 6090 nM
HCC-2998 colon
  GI50: 89.2 nM
  TGI: 838 nM
HCT-116 colon
  GI50: 85 nM
  TGI: 311 nM
HCT-15 colon
  GI50: 45.8 nM
  TGI: 1040 nM
HL-60(TB) leukemia
  GI50: 23.7 nM
  TGI: 118 nM
HOP-62 NSCLC
  GI50: 291 nM
  TGI: 1530 nM
HOP-92 NSCLC
  GI50: 69.5 nM
  TGI: 1550 nM
HS 578T breast
  GI50: 68.1 nM
  TGI: 461 nM
HT29 colon
  GI50: 74.3 nM
  TGI: 1120 nM
IGROV1 ovarian
  GI50: 92.8 nM
  TGI: 2090 nM
K-562 leukemia
  GI50: 30.4 nM
  TGI: 177 nM
KM12 colon
  GI50: 217 nM
  TGI: 1150 nM
LOX IMVI melanoma
  GI50: 198 nM
  TGI: 826 nM
M14 melanoma
  GI50: 123 nM
  TGI: 382 nM
MALME-3M melanoma
  GI50: 171 nM
  TGI: 609 nM
MCF7 breast
  GI50: 65.9 nM
  TGI: 982 nM
MDA-MB-231 breast
  GI50: 51.4 nM
  TGI: 663 nM
MDA-MB-435 melanoma
  GI50: 43.3 nM
  TGI: 210 nM
MDA-MB-468 breast
  GI50: 150 nM
  TGI: 336 nM
MOLT-4 leukemia
  GI50: 12.6 nM
  TGI: 25.9 nM
